From patent US8173618B2, “Formulations for reducing neuronal degeneration” (University of Massachusetts, priority 2003, dated 2012)

What was measured:
murine cortical neurons = experiment: PHF-1 immunofluorescence in murine cortical neurons with or without folate; assay type: cell-based, mice; details: folate deficiency, two hours
Method: For immunocytochemistry to detect paired helical filament-1 (PHF-1) staining (as an index of tau phosphorylation), cells were fixed for 15 minutes with 4% paraformaldehyde in 0.1 M phosphate buffer and immunostained by sequential reaction with a mouse monoclonal PHF-1 antibody that was raised against tau from paired helical filaments isolated from the brains of Alzheimer disease patients. Incubation with PHF-1 antibody was followed by rhodamine conjugated goat anti-mouse IgG and visualization using methods known in the art. […] In these experiments, SH-SY-5Y cells were cultured in folate-deficient Dulbecco's Modified Essential Medium (DMEM; Sigma) in the absence of serum for two hours. Cortical neurons were prepared from 12 day embryonic C57/B16 day old mice using known methods. The cortical neurons were cultured for 3 days in neurobasal medium with B27 supplements ([…] et al., 1999, J. Biol. Chem., 274:30322-30327). […] Both the SH-SY-5Y cultures and the cortical neurons were processed for PHF-1 (paired helical filament 1) immunofluorescence using known methods ([…] et al., 1999 supra). Control cells cultured in the continued presence of normal folate levels were also processed. Phospho-tau was also examined using immunoblot analysis. […]

SH-SY-5Y cells [1] = experiment: HPLC analysis of glutathione and thiols in SH-SY-5Y cells; assay type: cell-based, human
Method: (§1) Glutathione levels were quantified in homogenates of SH-SY-5Y cells. Cultures were rinsed twice with Tris-buffered saline (TBS), scraped from the plate in a small volume of TBS and homogenized on ice. Medium was also utilized for analysis of HCY along with cellular lysates, since HCY is normally exported from cells. Homogenates (100 μl) were reduced by mixing with 50 μl of 100 μM N-acetylcysteine or with 30 μl of 30 μM cystamine (as an internal standard) and 10 μl of tri-carboxyethylphosphine (100 mg/ml in 0.05 M HCl). Samples were vortexed, incubated at room temperature for 30 minutes, then centrifuged at 10,000×g for 10 minutes. 80 μl of the resulting supernatant were combined with 160 μl of 2 M boric acid/4 mM EDTA (pH 10.5), followed by 80 μl of 1.0 mg/ml SBDF [7-fluorobenzo-2-oxa-1,3-diazole-4-sulfonate] in boric acid/EDTA buffer). Samples were mixed, incubated for 60 minutes at 60° C., equilibrated to reach temperature, and 50 μl of the sample was then injected into a Hewlett Packard model 1090 HPLC, which is used with a 1046A fluorescence detector and a Hewlett Packard 4.6×60 mm high-speed analytical column packed with 3 μM ODs (C18) Hypersil silica. The mobile phase consisted of methanol/0.2 M acetate buffer pH 4.0 (2/98 by volume). Glutathione concentrations were then determined by comparison of peak area ratios of glutathione to the internal standard N-acetylcysteine in the sample compared to peak areas obtained for a glutathione standard curve. Samples were derived from 3-4 normal and 3-4 ApoE−/− mice for each dietary condition, from ≧2 independent experiments (total n≧6 for each diet for both experiments).
NAC directly scavenges ROS and also provide a source of intracellular cysteine for synthesis of glutathione during conditions of oxidative stress. […] Differentiated SH-SY-5Y cells with and without NAC treatment were subjected to HPLC along with 50 μM each of multiple thiol standards (“Standards”) as indicated in FIGS. 18A to 18C.

cortical neurons = experiment: Intracellular ROS by DCFD fluorescence in cortical neurons; assay type: cell-based, mice; details: folate deprivation for two hours
Method: Intracellular reactive oxygen species (ROS) were monitored as described in […] et al., 1999 (J. Biol. Chem., 274:30322-30327). Briefly, cells were incubated for 30 minutes with dichloro-fluorescein diacetate (DCFD; acetoxymethyl ester; Molecular Probes, Inc., Eugene, Oreg.), which is used to detect intracellular peroxide levels. Incubation was followed by rinsing of cultures in serum-free medium and immediate capture of images using UV optics. Images were captured under epifluorescent and phase-contrast illumination using a DAGE CCL-72 cooled CCD camera via a Scion LG-3 frame grabber operated by NIH Image (see the Internet at rsb.info.nih.gov/nih-image). Images were then stored as PICT files on a Macintosh Power PC 7100AV for subsequent analysis. At least 100 cells in randomly-selected fields from duplicate cultures derived from multiple experiments were scored for fluorescent intensity using NIH Image analysis software. Representative background areas devoid of cells were similarly analyzed and subtracted from cell values to yield net densitometric values. All fields for each individual assay were illuminated, captured, and processed under identical settings. Corresponding phase-contrast images were obtained. Cell aggregates were excluded from the assays; only individual cells were quantified. Values were exported to Excel for statistical analyses using Student's t test. […]

SH-SY-5Y cells [2] = experiment: HPLC of homocysteine in SH-SY-5Y cell lysates and medium; assay type: cell-based, human
Method: as §1
Medium was then decanted, cells were scraped from the plate and homogenized, and medium and cellular lysates, along with an aliquot of fresh medium that had not been in contact with cells, were subjected to HPLC analyses.

**Q.** What does the source list for Nc1nc2ncc(CNc3ccc(C(=O)N[C@@H](CCC(=O)O)C(=O)O)cc3)nc2c(=O)[nH]1 [folate, folic acid]?
**A.** average increase in PHF-1 immunofluorescence (murine cortical neurons): 1.5 fold; total glutathione levels (SH-SY-5Y cells [1]; brief (two hour) folate deprivation): no significant change; depletion of total glutathione levels (SH-SY-5Y cells [1]; folate deprivation for 24 hours): approximately 45%; oxidized glutathione (SH-SY-5Y cells [1]; in the presence of folate): 4%; oxidized glutathione (SH-SY-5Y cells [1]; two hours of folate deprivation): 46%; ROS (cortical neurons): increased reactive oxygen species (ROS); homocysteine levels within cell lysates (SH-SY-5Y cells [2]; both before and after folate deprivation): < 1 nM; homocysteine levels in medium (SH-SY-5Y cells [2]; cells cultured two hours in the absence of folate): approximately 300 nM; homocysteine levels in medium (SH-SY-5Y cells [2]; cells cultured two hours in the presence of folate): about 30 nM
